Reference: patent publication US6962937B2, “Imidazolidine derivatives, their preparation and their use” (Aventis Pharma Deutschland GmbH, priority 2001, dated 2005)
Counter-ions that a name gives are not always drawn.

Biological target: T1, interaction between VCAM-1 and VLA-4 (Homo sapiens, UniProt P05556+P13612)
T1 construct: supplied in their natural form as surface molecules on human U937 cells; host or cells: U937 cells (endogenous VLA-4); The partner hVCAM-1(1-3)-IgG was made in house in transfected COS cells (ATCC CRL1651) and used as culture supernatant
T1 sequence (P13612 34-1032): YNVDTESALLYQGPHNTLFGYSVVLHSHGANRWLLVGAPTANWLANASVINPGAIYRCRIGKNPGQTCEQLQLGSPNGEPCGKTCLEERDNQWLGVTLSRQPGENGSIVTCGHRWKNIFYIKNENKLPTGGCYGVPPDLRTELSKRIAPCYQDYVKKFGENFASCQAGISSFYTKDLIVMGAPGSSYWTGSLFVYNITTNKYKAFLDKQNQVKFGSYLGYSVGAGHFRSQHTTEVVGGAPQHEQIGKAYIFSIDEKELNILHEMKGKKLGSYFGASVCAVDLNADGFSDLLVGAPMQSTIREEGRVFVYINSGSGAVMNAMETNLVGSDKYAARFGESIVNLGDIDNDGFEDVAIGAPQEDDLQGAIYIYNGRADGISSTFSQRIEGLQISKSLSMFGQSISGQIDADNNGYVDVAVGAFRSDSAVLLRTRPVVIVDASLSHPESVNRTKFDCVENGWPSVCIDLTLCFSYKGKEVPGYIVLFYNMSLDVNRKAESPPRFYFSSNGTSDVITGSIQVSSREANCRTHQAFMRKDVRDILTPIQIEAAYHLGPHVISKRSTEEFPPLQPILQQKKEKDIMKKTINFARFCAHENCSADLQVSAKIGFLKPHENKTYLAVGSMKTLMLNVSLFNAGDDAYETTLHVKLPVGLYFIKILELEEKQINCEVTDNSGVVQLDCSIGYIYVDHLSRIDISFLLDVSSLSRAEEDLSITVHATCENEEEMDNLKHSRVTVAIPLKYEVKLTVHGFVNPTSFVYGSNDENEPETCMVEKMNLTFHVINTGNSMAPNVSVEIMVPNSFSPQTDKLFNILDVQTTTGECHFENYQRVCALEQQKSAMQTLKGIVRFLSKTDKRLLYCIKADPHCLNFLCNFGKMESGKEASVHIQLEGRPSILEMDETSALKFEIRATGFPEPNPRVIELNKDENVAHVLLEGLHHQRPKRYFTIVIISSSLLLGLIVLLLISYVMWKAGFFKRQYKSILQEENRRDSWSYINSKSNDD
T1 sequence (P05556 21-798): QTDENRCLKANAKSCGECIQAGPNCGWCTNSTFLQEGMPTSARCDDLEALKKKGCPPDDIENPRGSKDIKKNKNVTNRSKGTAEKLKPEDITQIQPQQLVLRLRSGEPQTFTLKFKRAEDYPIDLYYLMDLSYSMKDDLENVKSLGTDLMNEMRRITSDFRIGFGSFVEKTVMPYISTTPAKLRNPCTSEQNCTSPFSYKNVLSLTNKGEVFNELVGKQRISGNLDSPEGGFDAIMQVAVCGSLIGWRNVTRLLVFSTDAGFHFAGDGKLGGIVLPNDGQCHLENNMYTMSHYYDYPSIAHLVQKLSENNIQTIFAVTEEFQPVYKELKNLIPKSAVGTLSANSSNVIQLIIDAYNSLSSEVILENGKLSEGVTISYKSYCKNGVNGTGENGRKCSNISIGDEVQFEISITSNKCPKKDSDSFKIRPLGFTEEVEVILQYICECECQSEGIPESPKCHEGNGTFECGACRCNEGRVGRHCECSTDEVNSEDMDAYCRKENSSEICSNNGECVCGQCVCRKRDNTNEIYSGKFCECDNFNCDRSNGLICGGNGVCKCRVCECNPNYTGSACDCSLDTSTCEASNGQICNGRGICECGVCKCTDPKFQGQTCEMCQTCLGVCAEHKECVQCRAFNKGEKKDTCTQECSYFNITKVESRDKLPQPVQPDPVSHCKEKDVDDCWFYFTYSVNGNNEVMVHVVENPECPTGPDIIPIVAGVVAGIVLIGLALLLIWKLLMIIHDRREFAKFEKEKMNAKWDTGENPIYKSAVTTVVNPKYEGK
Test: U937/VCAM-1 cell adhesion test (adhesion of U937 cells to hVCAM-1 (1-3)-IgG)
Type: cell-based
Details: inhibition of adhesion of human U937 cells (ATCC CRL 1593) to hVCAM-1 (1-3)-IgG
Description: A) U937/VCAM-1 Cell Adhesion Test (Assay for Measuring the Adhesion of U937 Cells (ATCC CRL 1593) to hVCAM-1 (1-3)-IqG)
The assay described below which is specific for the interaction between VCAM-1 and VLA-4, is used as the method for testing the activity of the compounds of the formula I on this interaction. The cellular binding partners, that is the VLA-4 integrins, are supplied in their natural form as surface molecules on human U937 cells (ATCC CRL 1593) which belong to the leukocyte group. The specific binding partners employed are recombinantly prepared soluble fusion proteins which consist of the extracytoplasmic domain of human VCAM-1 and the constant region of a human immunoglobulin of the IgG1 subclass.
1. Preparation of Human VCAM-1 (1-3)-IqG and Human CD4-IgG
A gene construct for expressing the extracellular domain of human VCAM-1 linked to the gene sequence for the heavy chain of human immunoglobulin IgG1 (hinge, CH2 and CH3 regions) (from Dr. Brian Seed, Massachusetts General Hospital, Boston, USA; cf. Damle and Aruffo, Proc. Natl. Acad. Sci. USA, 1991, 88:6403) was employed. The soluble fusion protein hVCAM-1 (1-3)-IgG contained the three aminoterminal extracellular immunoglobulin-like domains of human VCAM-1 (Damle and Aruffo, Proc. Natl. Acad. Sci. USA, 1991, 88:6403). CD4-IgG (Zettimeissl et al., DNA and Cell Biology, 1990, 9:347) was used as the fusion protein for negative controls. The recombinant proteins were expressed as soluble proteins following the DEAE/dextran-mediated transfection of DNA into COS cells (ATCC CRL1651) using standard procedures (Ausubel et a., Current protocols in molecular biology, John Wiley & Sons, Inc., 1994).
2. Assay for Measuring the Adhesion of U937 Cells to hVCAM-1 (1-3)-IgG […]
2.6 U937 cells were incubated in Fc receptor blocking buffer for 20 minutes and then pipetted in at a concentration of 1×10^6/mL and in a quantity of 100 μL per well (final volume: 125 μL/well). […]

IC50 | SMILES
66.2 nM | COc1cc(CN2C(=O)N([C@H](CN[C@@H](CC(=O)O)c3ccccc3)CC3CC3)C(=O)C2(C)C)ccc1NC(=O)Nc1ccccc1C [Example 6, (S)-3-((S)-2-(4,4-Dimethyl-3-(4-(3-(2-methylphenyl)ureido)-3-methoxybenzyl)-2,5-dioxoimidazolidin-1-yl)-3-cyclopropylpropylamino)-3-phenylpropionic acid hydrochloride]
8.2 nM | COc1cc(CN2C(=O)N([C@H](CN[C@@H](CC(=O)O)c3ccc(OC)c(OC)c3)CC3CC3)C(=O)C2(C)C)ccc1NC(=O)Nc1ccccc1C [Example 14, (S)-3-((S)-2-(4,4-Dimethyl-3-(4-(3-(2-methylphenyl)ureido)-3-methoxybenzyl)-2,5-dioxoimidazolidin-1-yl)-3-cyclopropylpropylamino)-3-(3,4-dimethoxyphenyl)propionic acid hydrochloride]
24.4 nM | COc1cc(CN2C(=O)N([C@H](CN[C@@H](CC(=O)O)c3ccc4c(c3)OCO4)CC3CC3)C(=O)C2(C)C)ccc1NC(=O)Nc1ccccc1C [Example 17, (S)-3-((S)-2-(4,4-Dimethyl-3-(4-(3-(2-methylphenyl)ureido)-3-methoxybenzyl)-2,5-dioxoimidazolidin-1-yl)-3-cyclopropylpropylamino)-3-(3,4-methylenedioxyphenyl)propionic acid hydrochloride]
